Results reported in patent publication US4711898A, “4-quinolone derivatives having anti-inflammatory, anti-allergic, antitussive, expectorant and antithrombotic activity” (Nippon Shinyaku Co., Ltd., priority 1982, dated 1987).

These compounds were tested on passive cutaneous anaphylaxis (DNP-As homocytotropic antiserum) (assay: passive cutaneous anaphylatic assay (PCA) in rats). Details: 10 mg/kg orally, one hour before antigen, listed as 2-Chloro, Na salt.
Format: in vivo, Wistar strain rats
Method: (§1) The compounds of the present invention have been evaluated for their anti-allergenic action by passive cutaneous anaphylatic assay (PCA) in rats and by measuring the anti-SRS-A action using ileus of guinea pigs.
(i) Antiserum abundant in homocytotropic antibody is prepared by the same method as Tada and Okumura did (cf. Journal of Immunology, vol. 106, page 1002, 1971). Thus, 1 mg (calculated as an amount of protein) of DNP-As (2,4-dinitrophenylcoupled ascaris extract) prepared by methods of Strejan and Campbell (Journal of Immunology, vol. 98, p. 893, 1967) and of Eisen (Journal of Amer. Chem. Soc., vol. 75, p 4593, 1953) and 1×10^10pertussis vaccine are administered to each paw of Wistar strain rats (180 to 200 grams body weights) by dividing the dose by four. Five days later, 0.5 mg of DNP-As is administered into muscle of back. Eight days later from the initial immunization, blood is taken from discending aorta under anesthetizing with ether, the resulting serum is stored at -80° and is melted before use.
(ii) Effect of tested compounds is investigated as follows:
Anti-serum obtained by th method (i) is diluted with physiological saline solution double by double successively and 0.05 ml of each diluted solution is administered into the back of Wistar strain rats (140 to 160 grams body weight) intradermally. After 72 hours, a solution of 2 mg (calculated as protein) of DNP-As and 2.5 mg of Evans Blue dissolved in 1 ml of physiological saline solution is administered intraveously at a dose of 5 ml/kg. After 30 minutes from the antigen solution administration, the animals are killed and the diameters of blue spots which appeared at the place where antiserum was administered were measured. The PCA test is conducted by the same method as already described using a diluted solutions of antiserum which always show 10 mm or more of spot diameters and the effect of the test compounds is judged. Thus antiserum diluted solutions are administered into two places in the back. Test compounds are administered orally at the dose of 10 mg/kg one hour before administration of the antigen solution. From the skin of reacted parts of killed animals, leaked or emitted dyestuff is extracted and the amount of the dyestuff is measured. The inhibition ratio is calculated by the following expression: [formula] in which A' is an amount of dyestuff in the group treated with the test compounds and A is that in the control group.

SMILES	PCA Inhibition Ratio %
O=C(O)c1ccc2[nH]c(-c3ccccc3Cl)cc(=O)c2c1 [Example 23]	18.7%

Same assay, conditions: Rattus norvegicus, po, 1 h, 10 mg/kg orally, one hour before antigen, read-out: PCA Inhibition Ratio %

SMILES	inhibition in vivo at 10 mg/kg
CCCCCCCCc1ccc(-c2cc(=O)c3cccc(C(=O)O)c3[nH]2)cc1 [Example 97]	22%
CCCn1c(-c2ccccc2)cc(=O)c2cc(C(=O)O)ccc21 [Example 16]	23.4%
COC(=O)c1ccc2[nH]c(-c3ccc(Cl)cc3Cl)cc(=O)c2c1 [Example 34]	17.4%
N#CCOC(=O)c1cccc2c(=O)cc(-c3ccccc3Cl)[nH]c12 [Example 121]	54.4%
Cc1ccc(-c2cc(=O)c3cccc(C(=O)O)c3[nH]2)cc1 [Example 93]	23.5%
CC(=O)COC(=O)c1cccc2c(=O)cc(-c3ccccc3Cl)[nH]c12 [Example 122]	14.7%
C=CCc1c(-c2ccccc2)[nH]c2ccc(C(=O)O)cc2c1=O [Example 12]	17.5%
CC(C)c1ccc(-c2cc(=O)c3cc(C(=O)O)ccc3[nH]2)cc1 [Example 49]	25.2%
CC(C)OC(=O)c1ccc2c(c1)C(=O)CC(c1ccccc1)=N2 [Example 5, Isopropyl 2-phenyl-4-quinolone-6-carboxylate]	26.2%
CCCCCc1ccc(-c2cc(=O)c3cc(C(=O)O)ccc3[nH]2)cc1 [Example 51]	22.7%
CC(C)COCCOC(=O)c1cccc2c(=O)cc(-c3ccccc3Cl)[nH]c12 [Example 127]	13.3%
COC(=O)c1ccc(-c2cc(=O)c3cc(C(=O)OC)ccc3[nH]2)cc1 [Example 68]	19.8%
Cc1ccc(-c2cc(=O)c3cc(C(=O)O)ccc3[nH]2)c(C)c1 [Example 55]	16.8%
O=C(O)c1cccc2c(=O)cc(-c3cccc(Cl)c3)[nH]c12 [Example 87]	19.3%
COC(=O)c1ccc2[nH]c(-c3ccc(C)cc3)cc(=O)c2c1 [Example 46]	27.3%
Cc1ccc(-c2cc(=O)c3cc(C(=O)O)ccc3[nH]2)cc1 [Example 47]	17.3%
COc1ccc(-c2cc(=O)c3cccc(C(=O)OCCO)c3[nH]2)c(OC)c1 [Example 139]	18.4%
C=CCc1c(-c2ccccc2)[nH]c2ccc(C(=O)OC)cc2c1=O [Example 11]	20.1%

SMILES	inhibition in vivo at 10 mg/kg
O=C(O)c1ccc2[nH]c(-c3ccco3)cc(=O)c2c1 [Example 77]	17.4%
C=CCn1c(-c2ccccc2)cc(=O)c2cc(C(=O)OC)ccc21 [Example 17]	20.4%
CCOCCOCCOC(=O)c1cccc2c(=O)cc(-c3ccccc3Cl)[nH]c12 [Example 129]	5.4%
CCCn1c(-c2ccccc2)cc(=O)c2cc(C(=O)OC)ccc21 [Example 15]	19.7%
CCc1ccccc1-c1cc(=O)c2cc(C(=O)O)ccc2[nH]1 [Example 45]	24.2%
COc1ccccc1C1=Nc2ccc(C(=O)O)cc2C(=O)C1 [Example 57, 2-(2-methoxyphenyl)-4-quinolone-6-carboxylic acid]	20.4%
COC(=O)c1ccc2[nH]c(-c3cccc(C(F)(F)F)c3)cc(=O)c2c1 [Example 52]	25%
COC(=O)c1ccc2[nH]c(-c3cccs3)cc(=O)c2c1 [Example 78]	26.7%
Cc1ccc(-c2cc(=O)c3cccc(C(=O)O)c3[nH]2)c(C)c1 [Example 95]	24.2%
COc1ccc(-c2cc(=O)c3cccc(C(=O)OCCO)c3[nH]2)cc1OC [Example 140]	19.4%
O=C(O)c1ccc2[nH]c(-c3ccccc3F)cc(=O)c2c1 [Example 27]	25.6%
O=C(OCC(O)CO)c1cccc2c(=O)cc(-c3ccccc3Cl)[nH]c12 (stereo not shown) [Example 126]	15.3%
O=C(O)c1ccc(-c2cc(=O)c3cc(C(=O)O)ccc3[nH]2)cc1 [Example 69]	25.8%
COC(=O)c1ccc2[nH]c(-c3ccc(OC)cc3)cc(=O)c2c1 [Example 62]	19%
COC(=O)c1ccc2[nH]c(-c3ccc(Cl)c(Cl)c3)cc(=O)c2c1 [Example 37]	17.1%
CCCCCCOC(=O)c1cccc2c(=O)cc(-c3ccccc3Cl)[nH]c12 [Example 113]	10.5%
COC(=O)c1ccc2[nH]c(-c3ccccc3Br)cc(=O)c2c1 [Example 24]	23.4%
COC(=O)c1ccc2c(c1)C(=O)C(C)C(c1ccccc1)=N2 (stereo not shown) [Example 9, Methyl 3-methyl-2-phenyl-4-quinolone-6-carboxylate]	26.8%

What follows are compounds tested on SRS-A (slow reacting substance of anaphylaxis) contraction of ileum (assay: Anti-SRS-A action using ileus of guinea pigs). Details: Cavia porcellus, 5 min, 1/1000 mM; guinea pig ileum; SRS-A 20 units; compound five minutes before; read-out: 1/1000 mM SRS-A Inhibition Ratio %.
Format: cell-based, Hartley strain male guinea pigs
Method: as §1
Anti-SRS-A action (An anti-acton against slow reacting substance of anaphylaxis).
Hartley strain male guinea pigs (300 to 350 grams body weight) are killed and 1.0 to 1.5 cm of ileum is immeidiately excised from ileocecal parts and is suspended in 10 ml of Tyrode solution (95% 02 -5% CO2 saturation) containing 10^-7 g/ml of atropine and 10^-6 g/ml of pyrilamine. SRS-A (20 units) (the amount of SRS-A showing the same contradiction as 5 ng of histamine is defined as 1 unit) prepared by using sensitized guinea pig lung is given to cause contraction there. Then antagonistic action of test compounds treated five minutes ago against the contraction is measured and recorded via isotonic transducer. [formula] in which A' is a height of contraction of SRS-A+test compound and A is that of SRS-A.

SMILES	inhibition at 1 µM
CCCCCCCCc1ccc(-c2cc(=O)c3cccc(C(=O)O)c3[nH]2)cc1 [Example 97]	33.7%
CCCn1c(-c2ccccc2)cc(=O)c2cc(C(=O)O)ccc21 [Example 16]	19.7%
COC(=O)c1ccc2[nH]c(-c3ccc(Cl)cc3Cl)cc(=O)c2c1 [Example 34]	19.3%
N#CCOC(=O)c1cccc2c(=O)cc(-c3ccccc3Cl)[nH]c12 [Example 121]	3.4%
Cc1ccc(-c2cc(=O)c3cccc(C(=O)O)c3[nH]2)cc1 [Example 93]	26.7%
CC(=O)COC(=O)c1cccc2c(=O)cc(-c3ccccc3Cl)[nH]c12 [Example 122]	20.4%
C=CCc1c(-c2ccccc2)[nH]c2ccc(C(=O)O)cc2c1=O [Example 12]	22.3%
CC(C)c1ccc(-c2cc(=O)c3cc(C(=O)O)ccc3[nH]2)cc1 [Example 49]	18.8%
CC(C)OC(=O)c1ccc2c(c1)C(=O)CC(c1ccccc1)=N2 [Example 5, Isopropyl 2-phenyl-4-quinolone-6-carboxylate]	36.7%
CCCCCc1ccc(-c2cc(=O)c3cc(C(=O)O)ccc3[nH]2)cc1 [Example 51]	61.4%
CC(C)COCCOC(=O)c1cccc2c(=O)cc(-c3ccccc3Cl)[nH]c12 [Example 127]	25.4%
COC(=O)c1ccc(-c2cc(=O)c3cc(C(=O)OC)ccc3[nH]2)cc1 [Example 68]	36.8%
Cc1ccc(-c2cc(=O)c3cc(C(=O)O)ccc3[nH]2)c(C)c1 [Example 55]	17.5%
O=C(O)c1cccc2c(=O)cc(-c3cccc(Cl)c3)[nH]c12 [Example 87]	20.7%
COC(=O)c1ccc2[nH]c(-c3ccc(C)cc3)cc(=O)c2c1 [Example 46]	19.8%
Cc1ccc(-c2cc(=O)c3cc(C(=O)O)ccc3[nH]2)cc1 [Example 47]	18.9%
COc1ccc(-c2cc(=O)c3cccc(C(=O)OCCO)c3[nH]2)c(OC)c1 [Example 139]	63.3%
C=CCc1c(-c2ccccc2)[nH]c2ccc(C(=O)OC)cc2c1=O [Example 11]	37.5%

SMILES	inhibition at 1 µM
O=C(O)c1ccc2[nH]c(-c3ccco3)cc(=O)c2c1 [Example 77]	21%
C=CCn1c(-c2ccccc2)cc(=O)c2cc(C(=O)OC)ccc21 [Example 17]	22.7%
CCOCCOCCOC(=O)c1cccc2c(=O)cc(-c3ccccc3Cl)[nH]c12 [Example 129]	10.2%
CCCn1c(-c2ccccc2)cc(=O)c2cc(C(=O)OC)ccc21 [Example 15]	65.3%
CCc1ccccc1-c1cc(=O)c2cc(C(=O)O)ccc2[nH]1 [Example 45]	25.4%
COc1ccccc1C1=Nc2ccc(C(=O)O)cc2C(=O)C1 [Example 57, 2-(2-methoxyphenyl)-4-quinolone-6-carboxylic acid]	27.7%
COC(=O)c1ccc2[nH]c(-c3cccc(C(F)(F)F)c3)cc(=O)c2c1 [Example 52]	21.3%
COC(=O)c1ccc2[nH]c(-c3cccs3)cc(=O)c2c1 [Example 78]	23.3%
Cc1ccc(-c2cc(=O)c3cccc(C(=O)O)c3[nH]2)c(C)c1 [Example 95]	22.8%
COc1ccc(-c2cc(=O)c3cccc(C(=O)OCCO)c3[nH]2)cc1OC [Example 140]	18.3%
O=C(O)c1ccc2[nH]c(-c3ccccc3F)cc(=O)c2c1 [Example 27]	23.4%
O=C(OCC(O)CO)c1cccc2c(=O)cc(-c3ccccc3Cl)[nH]c12 (stereo not shown) [Example 126]	19.2%
O=C(O)c1ccc(-c2cc(=O)c3cc(C(=O)O)ccc3[nH]2)cc1 [Example 69]	27.9%
COC(=O)c1ccc2[nH]c(-c3ccc(OC)cc3)cc(=O)c2c1 [Example 62]	27.4%
COC(=O)c1ccc2[nH]c(-c3ccc(Cl)c(Cl)c3)cc(=O)c2c1 [Example 37]	24.3%
CCCCCCOC(=O)c1cccc2c(=O)cc(-c3ccccc3Cl)[nH]c12 [Example 113]	20.5%
COC(=O)c1ccc2[nH]c(-c3ccccc3Br)cc(=O)c2c1 [Example 24]	55.8%
COC(=O)c1ccc2c(c1)C(=O)C(C)C(c1ccccc1)=N2 (stereo not shown) [Example 9, Methyl 3-methyl-2-phenyl-4-quinolone-6-carboxylate]	54.8%

Same assay, conditions: guinea pig ileum, SRS-A 20 units, compound five minutes before, 5 min, listed as 2-Chloro, Na salt, 1 µM

SMILES	1/1000 mM SRS-A Inhibition Ratio %
O=C(O)c1ccc2[nH]c(-c3ccccc3Cl)cc(=O)c2c1 [Example 23]	24.9%

Each compound was assayed on carrageenin edema (assay: Carrageenin edema at the hind foot of rats). Details: Rattus norvegicus, po, 3 h, 200 mg/kg per os, one hour before carrageenin; foot volume three hours after; read-out: % Inhibition (carrageenin edema).
Format: in vivo, SD-strain rats
Method: The anti-inflammatory action of the compounds of the present invention were evaluated by measuring the inhibition against carrageenin edema as set forth below. Carrageenin edema at the hind foot of rats: Experimental method. SD-strain rats of body weights of around 150 grams were used, each group consisting of five rats. A solution (0.1 ml) of 0.5% carrageenin dissolved in physiological saline water was subcutaneously injected into the right hind foot pat of the rats and, one hour prior to the injection of carrageenin, 200 mg/kg of test compound was given per os. Foot volumes of the rats before the carrageenin treatment and those of three hours after the treatment were measured and the differences were compared with those of the control group to adopt as a target of the effect of the compounds.

SMILES	inhibition in vivo at 200 mg/kg
CCOC(=O)CCCOC(=O)c1cccc2c(=O)cc(-c3ccccc3Cl)[nH]c12 [Example 124]	14.5%

Same assay, conditions: Rattus norvegicus, po, 3 h, read-out: % Inhibition (carrageenin edema)

SMILES	inhibition in vivo at 200 mg/kg
CC(=O)Oc1ccccc1C(=O)O [Acetylsalicylic Acid, reference compound]	31.6%
